Source: ChEMBL document CHEMBL1128309, “Antitumor activity of 9(R)-dihydrotaxane analogs” (1995)

How the values were obtained:
Format in all cases: functional
[1] = ED50 compared to that of taxol.
[2] = system: HT-29; assay: Cytotoxicity against human colon adenocarcinoma HT-29 cell line
[3] = system: P388; assay: Cytotoxicity against mouse lymphocytic leukemia P388 cell line
[4] = system: B16-F10; assay: Cytotoxicity against mouse melanoma B16F10 cell line
[5] = system: A549; assay: Cytotoxicity against human lung carcinoma A549 cell line

Row | SMILES | Ratio [1] | Cytotoxicity [2] | Cytotoxicity [3] | Cytotoxicity [4] | Cytotoxicity [5]
1 | CC(=O)O[C@@H]1C2=C(C)[C@@H](OC(=O)[C@H](O)[C@@H](NC(=O)c3ccccc3)c3ccccc3)C[C@@](O)([C@@H](OC(=O)c3ccccc3)[C@@H]3[C@]4(OC(C)=O)CO[C@@H]4C[C@H](O)[C@@]3(C)[C@H]1O)C2(C)C (stereo in doubt; 14a) [listing 1 of 2 here] | 0.83 | – | – | – | –
2 | CCN(CC)CCO[C@H]1C[C@H]2OC[C@@]2(OC(C)=O)[C@H]2[C@H](OC(=O)c3ccccc3)[C@]3(O)C[C@H](OC(=O)[C@H](O)[C@@H](NC(=O)c4ccccc4)c4ccccc4)C(C)=C([C@@H](OC(C)=O)[C@H](O)[C@]12C)C3(C)C | 2.61 | 108 ng/mL | 310 ng/mL | 110 ng/mL | 400 ng/mL
3 | CC(=O)O[C@@H]1C2=C(C)[C@@H](OC(=O)[C@H](O)[C@@H](NC(=O)c3ccccc3)c3ccccc3)C[C@@](O)([C@@H](OC(=O)c3ccccc3)[C@@H]3[C@]4(OC(C)=O)CO[C@@H]4C[C@H](O)[C@@]3(C)[C@H]1O)C2(C)C (stereo in doubt; 14a) [listing 2 of 2 here] | – | 1.9 ng/mL | 140 ng/mL | 39 ng/mL | 11 ng/mL
4 | CC(=O)O[C@@H]1C2=C(C)[C@@H](OC(=O)[C@H](O)[C@@H](NC(=O)c3ccccc3)c3ccccc3)C[C@@](O)([C@@H](OC(=O)c3ccccc3)[C@@H]3[C@]4(OC(C)=O)CO[C@@H]4C[C@@H]4OC(=S)O[C@@H]1[C@]43C)C2(C)C | 2.78 | 11 ng/mL | 35 ng/mL | 20 ng/mL | 19 ng/mL
5 | CC(=O)O[C@@H]1C2=C(C)[C@@H](OC(=O)[C@H](O)[C@@H](NC(=O)c3ccccc3)c3ccccc3)C[C@@](O)([C@@H](OC(=O)c3ccccc3)[C@@H]3[C@]4(OC(C)=O)CO[C@@H]4C[C@H](O)[C@@]3(C)[C@H]1O)C2(C)C (stereo in doubt; 2) [listing 1 of 2 here] | – | 9.6 ng/mL | 57 ng/mL | 25 ng/mL | 22 ng/mL
6 | CO[C@H]1[C@H](OC(C)=O)C2=C(C)[C@@H](OC(=O)[C@H](O)[C@@H](NC(=O)c3ccccc3)c3ccccc3)C[C@@](O)([C@@H](OC(=O)c3ccccc3)[C@@H]3[C@]4(OC(C)=O)CO[C@@H]4C[C@H](O)[C@]31C)C2(C)C | 1.74 | 3.1 ng/mL | 7.8 ng/mL | 4.8 ng/mL | 4.7 ng/mL
7 | CC(=O)O[C@@H]1C2=C(C)[C@@H](OC(=O)[C@H](O)[C@@H](NC(=O)c3ccccc3)c3ccccc3)C[C@@](O)([C@@H](OC(=O)c3ccccc3)[C@@H]3[C@]4(OC(C)=O)CO[C@@H]4C[C@H](O)[C@@]3(C)[C@H]1O)C2(C)C (stereo in doubt; 2) [listing 2 of 2 here] | 0.75 | – | – | – | –
8 | CC(=O)O[C@@H]1C2=C(C)[C@@H](OC(=O)[C@H](O)[C@@H](NC(=O)c3ccccc3)c3ccccc3)C[C@@](O)([C@@H](OC(=O)c3ccccc3)[C@@H]3[C@]4(OC(C)=O)CO[C@@H]4C[C@H](OCC(O)CO)[C@@]3(C)[C@H]1O)C2(C)C (some centres undefined) | 2.02 | 310 ng/mL | >1000 ng/mL | >1000 ng/mL | 626 ng/mL
9 | CC(=O)O[C@@H]1C2=C(C)[C@@H](OC(=O)[C@H](O)[C@@H](NC(=O)c3ccccc3)c3ccccc3)C[C@@](O)([C@@H](OC(=O)c3ccccc3)[C@@H]3[C@]4(OC(C)=O)CO[C@@H]4C[C@H](OC(C)=O)[C@@]3(C)[C@H]1OC(C)=O)C2(C)C | 0.91 | 3.3 ng/mL | 22 ng/mL | 13 ng/mL | 15 ng/mL
10 | CC(=O)O[C@@]12CO[C@@H]1C[C@H](O)[C@]1(C)[C@@H]2[C@H](OC(=O)c2ccccc2)[C@]2(O)C[C@H](OC(=O)[C@H](O)[C@@H](NC(=O)OC(C)(C)C)c3ccccc3)C(C)=C([C@@H](O)[C@@H]1O)C2(C)C | 1.31 | 0.65 ng/mL | 2.8 ng/mL | 0.4 ng/mL | 0.26 ng/mL
11 | CC(=O)O[C@@H]1C2=C(C)[C@@H](OC(=O)[C@H](O)[C@@H](NC(=O)c3ccccc3)c3ccccc3)C[C@@](O)([C@@H](OC(=O)c3ccccc3)[C@@H]3[C@]4(OC(C)=O)CO[C@@H]4C[C@H](OCCO)[C@@]3(C)[C@H]1O)C2(C)C | 1.77 | 10 ng/mL | 170 ng/mL | 119 ng/mL | 39 ng/mL
12 | CO[C@H]1[C@H](OC(C)=O)C2=C(C)[C@@H](OC(=O)[C@H](O)[C@@H](NC(=O)OC(C)(C)C)c3ccccc3)C[C@@](O)([C@@H](OC(=O)c3ccccc3)[C@@H]3[C@]4(OC(C)=O)CO[C@@H]4C[C@H](O)[C@]31C)C2(C)C | 0.51 | 0.5 ng/mL | 1.3 ng/mL | 0.9 ng/mL | 0.1 ng/mL
13 | CC(=O)O[C@@H]1C2=C(C)[C@@H](OC(=O)[C@H](O)[C@@H](NC(=O)c3ccccc3)c3ccccc3)C[C@@](O)([C@@H](OC(=O)c3ccccc3)[C@@H]3[C@]4(OC(C)=O)CO[C@@H]4C[C@@H]4OC(C)(C)O[C@@H]1[C@]43C)C2(C)C | 0.76 | 29 ng/mL | 42 ng/mL | 34 ng/mL | 34 ng/mL
14 | CC(=O)OCCO[C@H]1C[C@H]2OC[C@@]2(OC(C)=O)[C@H]2[C@H](OC(=O)c3ccccc3)[C@]3(O)C[C@H](OC(=O)[C@H](O)[C@@H](NC(=O)c4ccccc4)c4ccccc4)C(C)=C([C@@H](OC(C)=O)[C@H](O)[C@]12C)C3(C)C | 2.47 | 31 ng/mL | 79 ng/mL | 43 ng/mL | 120 ng/mL
15 | CC(=O)O[C@@H]1C2=C(C)[C@@H](OC(=O)[C@H](O)[C@@H](NC(=O)c3ccccc3)c3ccccc3)C[C@@](O)([C@@H](OC(=O)c3ccccc3)[C@@H]3[C@]4(O)CO[C@@H]4C[C@H](O)[C@@]3(C)[C@H]1O)C2(C)C | > 10 | >1000 ng/mL | >1000 ng/mL | >1000 ng/mL | >1000 ng/mL
16 | CC(=O)O[C@H]1C(=O)[C@@]2(C)[C@H]([C@H](OC(=O)c3ccccc3)[C@]3(O)C[C@H](OC(=O)[C@H](O)[C@@H](NC(=O)c4ccccc4)c4ccccc4)C(C)=C1C3(C)C)[C@]1(OC(C)=O)CO[C@@H]1C[C@@H]2O [PACLITAXEL] | 1 | 3.5 ng/mL | 11 ng/mL | 6.3 ng/mL | 4.3 ng/mL
17 | CO[C@H]1C[C@H]2OC[C@@]2(OC(C)=O)[C@H]2[C@H](OC(=O)c3ccccc3)[C@]3(O)C[C@H](OC(=O)[C@H](O)[C@@H](NC(=O)c4ccccc4)c4ccccc4)C(C)=C([C@@H](OC(C)=O)[C@H](O)[C@]12C)C3(C)C | 0.92 | 1.4 ng/mL | 3.9 ng/mL | 1.5 ng/mL | 1.2 ng/mL
18 | CCC1O[C@H]2C[C@H]3OC[C@@]3(OC(C)=O)[C@H]3[C@H](OC(=O)c4ccccc4)[C@]4(O)C[C@H](OC(=O)[C@H](O)[C@@H](NC(=O)c5ccccc5)c5ccccc5)C(C)=C([C@@H](OC(C)=O)[C@H](O1)[C@]23C)C4(C)C (some centres undefined) | – | 16 ng/mL | 22 ng/mL | 15 ng/mL | 23 ng/mL
19 | CO[C@H]1C[C@H]2OC[C@@]2(OC(C)=O)[C@H]2[C@H](OC(=O)c3ccccc3)[C@]3(O)C[C@H](OC(=O)[C@H](O)[C@@H](NC(=O)OC(C)(C)C)c4ccccc4)C(C)=C([C@@H](OC(C)=O)[C@H](O)[C@]12C)C3(C)C | 0.35 | 0.15 ng/mL | 0.6 ng/mL | 0.2 ng/mL | 0.27 ng/mL
20 | C=CCO[C@H]1C[C@H]2OC[C@@]2(OC(C)=O)[C@H]2[C@H](OC(=O)c3ccccc3)[C@]3(O)C[C@H](OC(=O)[C@H](O)[C@@H](NC(=O)c4ccccc4)c4ccccc4)C(C)=C([C@@H](OC(C)=O)[C@H](O)[C@]12C)C3(C)C | 1.4 | 1.2 ng/mL | 5.3 ng/mL | 2.7 ng/mL | 1 ng/mL
